Experimental data from ChEMBL document CHEMBL1144386, “Synthesis of O-galactosyl aldoximes as potent LacNAc-mimetic galectin-3 inhibitors” (Bioorg Med Chem Lett, 2005).

Test: Dissociation constant against galectin-3 using competitive fluorescence polarization

Row | Kd | Compound
1 | 530 µM | O=[N+]([O-])c1cccc(/C=N/O[C@@H]2OC(CO)C(O)[C@H](O)C2O)c1 (stereo partly specified)
2 | 2600 µM | Cc1ccc(O)c(/C=N/O[C@@H]2OC(CO)C(O)[C@H](O)C2O)c1 (stereo partly specified)
3 | 2200 µM | OCC1O[C@@H](O/N=C/c2cccc(OC(F)(F)F)c2)C(O)[C@@H](O)C1O (stereo partly specified)
4 | 370 µM | OCC1O[C@@H](O/N=C/c2cccc3ccccc23)C(O)[C@@H](O)C1O (stereo partly specified)
5 | 6000 µM | OCC1O[C@@H](O/N=C/c2ccc(-c3ccccc3)cc2)C(O)[C@@H](O)C1O (stereo partly specified)
6 | 1800 µM | OCC1O[C@@H](O/N=C/c2ccccc2O)C(O)[C@@H](O)C1O (stereo partly specified)
7 | 330 µM | OCC1O[C@@H](O/N=C/c2c[nH]c3ccccc23)C(O)[C@@H](O)C1O (stereo partly specified)
8 | 3100 µM | OCC1O[C@@H](O/N=C/c2ccc(F)cc2)C(O)[C@@H](O)C1O (stereo partly specified)
9 | 1700 µM | COc1ccc(/C=N/O[C@@H]2OC(CO)C(O)[C@H](O)C2O)c(O)c1 (stereo partly specified)
10 | 1800 µM | OCC1O[C@@H](O/N=C/c2cccc(O)c2)C(O)[C@@H](O)C1O (stereo partly specified)
11 | 220 µM | OC[C@H]1O[C@@H](O/N=C/c2c[nH]c3ccccc23)[C@H](O)[C@@H](O)[C@H]1O
12 | 5700 µM | C/C=N/O[C@@H]1OC(CO)C(O)[C@H](O)C1O (stereo partly specified)
13 | 1600 µM | O=[N+]([O-])c1ccc(/C=N/O[C@@H]2OC(CO)C(O)[C@H](O)C2O)o1 (stereo partly specified)
14 | > 10000 µM | OCC1O[C@@H](O/N=C/c2ccccc2F)C(O)[C@@H](O)C1O (stereo partly specified)
15 | > 10000 µM | OCC1O[C@@H](O/N=C/c2ccoc2)C(O)[C@@H](O)C1O (stereo partly specified)
16 | 5300 µM | OCC1O[C@@H](O/N=C/CCl)C(O)[C@@H](O)C1O (stereo partly specified)
17 | 5500 µM | NO[C@@H]1OC(CO)C(O)[C@H](O)C1O (stereo partly specified)
18 | 690 µM | OCC1O[C@@H](O/N=C/c2ccc(Br)cc2)C(O)[C@@H](O)C1O (stereo partly specified)
19 | 4100 µM | CC(=O)Nc1ccc(/C=N/O[C@@H]2OC(CO)C(O)[C@H](O)C2O)cc1 (stereo partly specified)

Row | Kd | Compound
20 | 2900 µM | OCC1O[C@@H](O/N=C/c2cccc(-c3ccccc3)c2)C(O)[C@@H](O)C1O (stereo partly specified)
21 | 4800 µM | OCC1O[C@@H](O/N=C/c2ccc(O)cc2)C(O)[C@@H](O)C1O (stereo partly specified)
22 | 2200 µM | CCn1c2ccccc2c2cc(/C=N/O[C@@H]3OC(CO)C(O)[C@H](O)C3O)ccc21 (stereo partly specified)
23 | > 10000 µM | OCC1O[C@@H](O/N=C/c2ccc(OCc3ccccc3)cc2)C(O)[C@@H](O)C1O (stereo partly specified)
24 | 2900 µM | OCC1O[C@@H](O/N=C/c2ccccc2-c2ccccc2)C(O)[C@@H](O)C1O (stereo partly specified)
25 | 7200 µM | OCC1O[C@@H](O/N=C/C(c2ccccc2)c2ccccc2)C(O)[C@@H](O)C1O (stereo partly specified)
26 | 1700 µM | COc1cccc(/C=N/O[C@@H]2OC(CO)C(O)[C@H](O)C2O)c1O (stereo partly specified)
27 | 8900 µM | C=NO[C@@H]1OC(CO)C(O)[C@H](O)C1O (stereo partly specified)
28 | 2200 µM | O=[N+]([O-])c1ccc(/C=N/O[C@@H]2OC(CO)C(O)[C@H](O)C2O)cc1 (stereo partly specified)
29 | 5700 µM | Cc1ccccc1/C=N/O[C@@H]1O[C@@H](CO)[C@H](O)[C@H](O)[C@@H]1O
30 | 2300 µM | OCC1O[C@@H](O/N=C/c2ccc3ccccc3c2)C(O)[C@@H](O)C1O (stereo partly specified)
31 | 9000 µM | CN(C)c1ccc(/C=N/O[C@@H]2OC(CO)C(O)[C@H](O)C2O)cc1 (stereo partly specified)
32 | 550 µM | OCC1O[C@@H](O/N=C/c2ccc(O)c(O)c2)C(O)[C@@H](O)C1O (stereo partly specified)
33 | 1800 µM | O=[N+]([O-])c1ccc(/C=N/O[C@@H]2OC(CO)C(O)[C@H](O)C2O)c([N+](=O)[O-])c1 (stereo partly specified)
34 | 4800 µM | OCC1O[C@@H](O/N=C/C2CCCCC2)C(O)[C@@H](O)C1O (stereo partly specified)
35 | 4800 µM | OCC1O[C@@H](O/N=C\C2C[C@H]3C=CC2C3)C(O)[C@@H](O)C1O (stereo partly specified)
36 | 3800 µM | OCC1O[C@@H](O/N=C/c2ccccc2OC(F)(F)F)C(O)[C@@H](O)C1O (stereo partly specified)
37 | 840 µM | OCC1O[C@@H](O/N=C/c2ccc(O)cc2O)C(O)[C@@H](O)C1O (stereo partly specified)
38 | 4800 µM | CC(C)(C)c1ccc(/C=N/O[C@@H]2OC(CO)C(O)[C@H](O)C2O)cc1 (stereo partly specified)

Row | Kd | Compound
39 | 620 µM | OCC1O[C@@H](O/N=C/c2ccnc3ccccc23)C(O)[C@@H](O)C1O (stereo partly specified)
40 | 1400 µM | OCC1O[C@@H](O/N=C/c2ccc3ccccc3n2)C(O)[C@@H](O)C1O (stereo partly specified)
41 | 1650 µM | OCC1O[C@@H](O/N=C/c2cc(Br)ccc2O)C(O)[C@@H](O)C1O (stereo partly specified)
42 | 1600 µM | OCC1O[C@@H](O/N=C/c2cccc(F)c2)C(O)[C@@H](O)C1O (stereo partly specified)
43 | 3500 µM | OCC1O[C@@H](O/N=C/c2ccccc2)C(O)[C@@H](O)C1O (stereo partly specified)
44 | 9300 µM | O=[N+]([O-])c1ccccc1/C=N/O[C@@H]1OC(CO)C(O)[C@H](O)C1O (stereo partly specified)
45 | 2500 µM | OCC1O[C@@H](O/N=C/c2c3ccccc3cc3ccccc23)C(O)[C@@H](O)C1O (stereo partly specified)
46 | > 10000 µM | OCC1O[C@@H](O/N=C/CCc2ccccc2)C(O)[C@@H](O)C1O (stereo partly specified)
47 | 780 µM | OCC1O[C@@H](O/N=C/c2cc(O)ccc2O)C(O)[C@@H](O)C1O (stereo partly specified)
48 | > 10000 µM | OCC1O[C@@H](O/N=C/Cc2ccccc2)C(O)[C@@H](O)C1O (stereo partly specified)
49 | 3300 µM | OCC1O[C@@H](O/N=C/c2cccnc2)C(O)[C@@H](O)C1O (stereo partly specified)
50 | 360 µM | O=[N+]([O-])c1ccc(O)c(/C=N/O[C@@H]2OC(CO)C(O)[C@H](O)C2O)c1 (stereo partly specified)
51 | 7300 µM | CCC(/C=N/O[C@@H]1OC(CO)C(O)[C@H](O)C1O)CC (stereo partly specified)
52 | > 10000 µM | OCC1O[C@@H](O/N=C/c2ccncc2)C(O)[C@@H](O)C1O (stereo partly specified)
53 | 6400 µM | OCC1O[C@@H](O/N=C/c2ccco2)C(O)[C@@H](O)C1O (stereo partly specified)
54 | 4000 µM | O=C[C@H](O)[C@@H](O)[C@@H](O)[C@H](O)CO [GALACTOSE]
55 | 4400 µM | OC[C@H]1O[C@@H](O)[C@H](O)[C@@H](O)[C@H]1O [b-D-GALACTOSE]
56 | 220 µM | LACTOSE, ANHYDROUS
